Reference: patent US20090291088A1, “THERAPEUTIC COMBINATIONS OF ANTI-IGF-1R ANTIBODIES AND OTHER COMPOUNDS” (Biogen Idec MA Inc., priority 2008, published 2009)

Experiments:
[1] = system: NSCLC, pancreatic and colon cancer cell lines; assay: Cell viability, M13-C06 and erlotinib alone or combined; format: cell-based
Protocol: M13-C06 (human IgG4 Pagly anti-IGF-1R antibody) is currently in clinical development for multiple solid tumors. We evaluated the effect of anti-IGF-1R M13-C06 in combination with erlotinib (American Custom Chemicals Corp., cat# 183319-69-9 (San Diego, Calif.)) on the growth (proliferation) of a panel of NSCLC, pancreatic and colon cancer cell lines. Cells were plated at 5000 cells per well in 96-well tissue culture plates in RPMI-1640 (containing 10% fetal bovine serum (FBS, Hyclone cat# Sh30071.03)) and then treated with M13-C06 or erlotinib as single agents or in combination at 1:3 serial dilutions with a starting concentration of 200 nM and 20 microM for M13-C06 and for erlotinib respectively.

[2] = system: AKT and MAPK phosphorylation in NSCLC cell lines; assay: Western blot of AKT and MAPK phosphorylation, M13-C06 and erlotinib; format: cell-based; conditions: 10 microM erlotinib, 3 hours
Protocol: We set to determine the molecular mechanisms underlying the observed enhanced anti-tumor effect of combining erlotinib and M13-C06 in NSCLC cell lines. AKT and MAPK activation status was evaluated after treatment with erlotinib and M13-C06 as single agents or in combination, since AKT and MAPK are common downstream signaling targets of IGF-1R and EGFR. Tumor cell lines were plated onto 6-well plates at 1.2×10^6 per well, in RPMI+10% FBS media, and allowed to adhere overnight. The following day, media from wells was removed and replaced with 100 nM M13-C06 or IDEC151 (human IgG4 isotype control antibody) in combination with either media (single agent control) or 10 microM erlotinib in media. Assay plates were incubated in a 37° C., 5% C02 humidified incubator for 3 hours, and cellular proteins were extracted in cell lysis buffer (Cell Signaling Technology, cat# 9803 (Danvers, Mass. USA)). Protein concentrations in lysates were measured using a BCA protein assay kit (Pierce, cat# 23227 (Pierce Biotechnology, Inc., Rockford, Ill.)) and equal amount of proteins were run on a NUPAGE 4-12% Tris-Bis gel, and transferred to a nitrocellulose membrane (0.45 μm pore). Phosphorylation was detected by treatment with antibodies specific for phospho-AKT, total AKT, phospho-MAPK, or total MAPK (Cell Signaling technology, cat #9271, 9272, 9101, 9102), followed by treatment with anti-Rabbit-IgG-HRP (Southern Biotech. cat# 4050-05). Blots were developed with Supersignal Western Substrate Kit (Pierce, cat#34095) and the chemiluminescent image was captured on a BioRad Max2 imager. […] In general, the effects of M13-C06 and erlotinib on downstream signaling molecules AKT and MAPK correlate with their effects on cell growth as shown in FIG. 41.

[3] = system: NSCLC, pancreatic, colon cancer and sarcoma cell lines; assay: Cell viability, M13-C06 and rapamycin alone or combined; format: cell-based
Protocol: For cell growth assays, cells were plated at 5000 cells per well in 96-well tissue culture plates in RPMI-1640 containing 10% fetal bovine serum (for most cell lines) or McCoy's 5A plus 15% FBS (for sarcoma cell lines). Cells were treated with M13-C06 and rapamycin (American Custom Chemicals Corp. cat# 53123-88-9) as a single agent or in combination at 1:3 serial dilutions with a starting concentration of 200 nM for M13-C06 and 100 nM or 1 microM for rapamycin for three or five days. Cell viability was determined by measuring ATP levels with CELL TITER GLO™ reagent.

[4] = system: AKT and S6K signaling in sarcoma and lung tumor cell lines; assay: Western blot of AKT and S6K phosphorylation, M13-C06 and rapamycin; format: cell-based; conditions: 100 nM rapamycin, 3 hours
Protocol: It has been reported that rapamycin inhibition of mTOR induces AKT activation through S6K (S6 kinase) and IGF-1R/IRS-1 (Insulin Receptor Substrate-1) dependent feedback loop (O'Reilly, et al., Cancer Research, vol. 66, p. 1500-1508 (2006)). We therefore examined the effect of M13-C06 and rapamycin on AKT and S6K signaling in selected sarcoma and lung tumor cell lines in which M13-C06 enhanced the anti-tumor activity of rapamycin. Cells were plated onto 12 well plates at 6×10^5 per well, in McCoy's 5A medium plus 15% FBS for sarcoma and RPMI-1640 plus 10% FBS for NSCLC cell lines, and allowed to adhere overnight. The following day, media from wells was removed and replaced with 100 nM M13-C06 or IDEC151 in combination with either media (single agent control) or 100 nM rapamycin in media. Assay plates were incubated in a 37° C., 5% CO2 humidified incubator for 3 hours, cells were lysed in Cell Signaling Lysis Buffer (Cell Signal Technologies, #9803), and the lysates were normalized by protein concentration and run on a NUPAGE 4-12% Tris-Bis gel, then transferred to a nitrocellulose membrane. Phosphorylation status of AKT and S6K was detected by treatment with antibodies specific for phospho-AKT, total AKT phospho-S6K, or total S6K (Cell Signaling technology, cat# 2215, 2217), then by treatment with anti-Rabbit-IgG-HRP (Cell Signaling Biotechnology, cat# 7071). […]

[5] = system: NSCLC, pancreatic and colon cancer cell lines; assay: Cell viability, M13-C06 and PI-103 alone or combined; format: cell-based; conditions: PI-103, colon cancer cell lines
Protocol: Cells were plated at 5000 cells/well in 96-well tissue culture plates in cell culture medium containing 10% fetal bovine serum, then treated with M13-C06 or PI-103 (American Custom Chemicals Corp. cat# 371935-74-9) as single agents or in combination at 1:3 serial dilutions with a starting concentration of 200 nM and 10 microM for M13-C06 and PI-103 respectively. The cell viability was determined three or five days later by measuring ATP levels with CELL TITER GLO™ reagent from Promega.

[6] = system: MiaPaCa2 pancreatic carcinoma cells; assay: MiaPaCa2 pancreatic carcinoma xenograft; format: in vivo, mouse; conditions: gemcitabine alone, 20 mg/kg, Q4D×3
From the text: Female SCID mice were innoculated in the right flank with 2×10^6 MiaPaCa2 pancreatic carcinoma cells in 50% Matrigel (BD Biosciences)/PBS.

With C#Cc1cccc(Nc2ncnc3cc(OCCOC)c(OCCOC)cc23)c1 [erlotinib, N-(3-ethynylphenyl)-6,7-bis(2-methoxyethoxy)quinazolin-4-amine, reference compound] the cell growth ([1]; erlotinib single agent, 7 NSCLC cell lines, five days) was “substantially inhibited the growth of only H322M and H1650 cell lines”, the cell growth ([1]; erlotinib, 5 colon cancer cell lines) was “none of 5 colon cancer cell lines showed substantial growth inhibition” and the “phosphorylation of MAPK” value ([2]; A549 cells) was “partial inhibition of MAPK phosphorylation”. The “phosphorylation of MAPK” value ([2]; H322M cells) was “completely abolished detectable phosphorylation of MAPK” and the “phosphorylation of MAPK” value ([2]; H1299 and NCI-H23 cells) was “little effect”.

For “(16Z,24Z,26Z,28Z)-1,18-dihydroxy-12-[1-(4-hydroxy-3-methoxycyclohexyl)propan-2-yl]-19-methoxy-15,17,21,23,29,35-hexamethyl-30-(5-methylthiophen-2-yl)-11,36-dioxa-4-azatricyclo[30.3.1.0̂ {4,9}]hexatriaconta-16,24,26,28-tetraene-2,3,10,14,20-pentone [rapamycin, reference compound]”, the cell growth ([3]; rapamycin, colon cancer cell lines) was “most colon cancer cell line tested did not respond well to rapamycin”, the cell growth ([3]; single agent, SJSA-1 cells) was “did not respond” and the “phosphorylation of S6K” value [4] was “inhibited phosphorylation of S6K”. The AKT phosphorylation ([4]; all cell lines tested) was “induced AKT phosphorylation in all cell lines tested”.

With Oc1cccc(-c2nc(N3CCOCC3)c3oc4ncccc4c3n2)c1 [PI-103, 3-[4-(4-morpholinyl)pyrido[3′,2′:4,5]furo[3,2-d]pyrimidin-2-yl]-phenol, reference compound] the cell growth [5] was “None of the colon cancer cell lines appeared to be sensitive to PI-103 inhibition”.

In the case of Nc1ccn([C@@H]2O[C@H](CO)[C@@H](O)C2(F)F)c(=O)n1 [gemcitabine], the tumor growth [6] is reported as “inhibited tumor growth”.
